Laboratory results from ChEMBL document CHEMBL1142398, “Chemical stability of the peroxide bond enables diversified synthesis of potent tetraoxane antimalarials” (J Med Chem, 2008).

What was measured:
[1] = system: Plasmodium falciparum; experiment: microbe, parasite or virus in culture; conditions: TM91C235
Description: Antimalarial activity against multidrug-resistant Plasmodium falciparum TM91C235

[2] = system: Plasmodium berghei; experiment: Antimalarial activity against Plasmodium berghei KBG173 infected CD1 mice (Mus musculus) at 37.5 mg/kg/day subcutaneous dose as survival time after 3-5 days; type: functional
[3] = system: Plasmodium berghei; experiment: Antimalarial activity against Plasmodium berghei KBG173 infected CD1 mice (Mus musculus) at 150 mg/kg/day subcutaneous dose as survival time after 3-5 days; type: functional
[4] = system: Plasmodium berghei; experiment: Antimalarial activity against Plasmodium berghei KBG173 infected CD1 mice (Mus musculus) on subcutaneous dose after 3-5 days; type: functional
[5] = system: Plasmodium falciparum; experiment: microbe, parasite or virus in culture; conditions: W2
Description: Antimalarial activity against Plasmodium falciparum W2

[6] = system: Plasmodium berghei; experiment: Antimalarial activity against Plasmodium berghei KBG173 infected CD1 mice (Mus musculus) at 9.3 mg/kg/day subcutaneous dose as survival time after 3-5 days; type: functional
[7] = system: Plasmodium falciparum; experiment: microbe, parasite or virus in culture; conditions: D6
Description: Antimalarial activity against Plasmodium falciparum D6

[8] = Metabolic stability assessed as half life in mouse liver microsomes; type: ADME, Microsome
[9] = system: Plasmodium berghei; experiment: Antimalarial activity against Plasmodium berghei KBG173 infected CD1 mice (Mus musculus) at 300 mg/kg/day subcutaneous dose as survival time after 3-5 days; type: functional
[10] = Metabolic stability assessed as half life in human liver microsomes; type: ADME, Microsome
[11] = system: SF-539; experiment: Antiproliferative activity against human SF539 cells after 48 hrs; type: functional; conditions: SF-539, 48 h
[12] = system: CCRF-CEM; experiment: Antiproliferative activity against human CCRF-CEM cells after 48 hrs; type: functional
[13] = system: SR; experiment: Antiproliferative activity against human SR cells after 48 hrs; type: functional
[14] = system: LOX IMVI; experiment: Antiproliferative activity against human LOXIMVI cells after 48 hrs; type: functional
[15] = system: MOLT-4; experiment: Antiproliferative activity against human MOLT4 cells after 48 hrs; type: functional; conditions: MOLT-4, 48 h
[16] = system: NCI/ADR-RES; experiment: Antiproliferative activity against human NCI/ADR-RES cells after 48 hrs; type: functional
[17] = Antiproliferative activity against human HL60(TB) cells after 48 hrs; type: functional, HL-60(TB); conditions: HL-60, 48 h
[18] = system: PC-3; experiment: Antiproliferative activity against human PC3 cells after 48 hrs; type: functional; conditions: PC-3, 48 h
[19] = system: SF-295; experiment: Antiproliferative activity against human SF295 cells after 48 hrs; type: functional; conditions: SF-295, 48 h
[20] = system: HOP-92; experiment: Antiproliferative activity against human HOP92 cells after 48 hrs; type: functional; conditions: HOP-92, 48 h
[21] = system: SK-MEL-2; experiment: Antiproliferative activity against human SKMEL2 cells after 48 hrs; type: functional; conditions: SK-MEL-2, 48 h
[22] = system: 786-0; experiment: Antiproliferative activity against human 786-0 cells after 48 hrs; type: functional; conditions: 786-0, 48 h
[23] = system: U-251; experiment: Antiproliferative activity against human U251 cells after 48 hrs; type: functional; conditions: U-251, 48 h
[24] = system: EKVX; experiment: Antiproliferative activity against human EKVX cells after 48 hrs; type: functional
[25] = system: NCI-H460; experiment: Antiproliferative activity against human NCI-H460 cells after 48 hrs; type: functional; conditions: NCI-H460, 48 h
[26] = system: IGROV-1; experiment: Antiproliferative activity against human IGROV1 cells after 48 hrs; type: functional; conditions: IGROV-1, 48 h
[27] = system: T47D; experiment: Antiproliferative activity against human T47D cells after 48 hrs; type: functional
[28] = system: UO-31; experiment: Antiproliferative activity against human UO31 cells after 48 hrs; type: functional; conditions: UO-31, 48 h
[29] = system: DU-145; experiment: Antiproliferative activity against human DU145 cells after 48 hrs; type: functional; conditions: DU-145, 48 h
[30] = system: Plasmodium berghei; experiment: Antimalarial activity against Plasmodium berghei KBG173 infected CD1 mice (Mus musculus) at 20 mg/kg/day peroral dose as survival time after 3-5 days; type: functional; conditions: route oral
[31] = system: Plasmodium berghei; experiment: Antimalarial activity against Plasmodium berghei KBG173 infected CD1 mice (Mus musculus) at 80 mg/kg/day peroral dose as survival time after 3-5 days; type: functional; conditions: route oral
[32] = system: Plasmodium berghei; experiment: Antimalarial activity against Plasmodium berghei KBG173 infected CD1 mice (Mus musculus) at 320 mg/kg/day peroral dose as survival time after 3-5 days; type: functional; conditions: route oral
[33] = read-out: LC50 (the source's name)

C1CCC(NCC2CCC3(CC2)OOC2(CCCCC2)OO3)CC1
IC50 [1]: 10.8 nM | IC90 [1]: 13.9 nM | Survival [2]: 22.6 days | Survival [3]: 29 days | MCD [4]: <=37.5 mg/kg/day | IC50 [5]: 6.17 nM | IC90 [5]: 17.7 nM | Survival [6]: 13.4 days | IC50 [7]: 11.2 nM | IC90 [7]: 14 nM | half-life [8]: 43.9 min | Survival [9]: >31 days | half-life [10]: 15.9 min

NCC1CCC2(CC1)OOC1(CCCCC1)OO2
IC50 [1]: 19.8 nM | IC90 [1]: 29 nM | Survival [2]: 24.6 days | Survival [3]: >31 days | MCD [4]: <=37.5 mg/kg/day | IC50 [5]: 7.79 nM | IC90 [5]: 16 nM | Survival [6]: 16.6 days | IC50 [7]: 12.8 nM | IC90 [7]: 24.1 nM | Survival [9]: >31 days

C[C@H](CCCO)[C@H]1CC[C@H]2[C@@H]3[C@H](O)C[C@@H]4CC5(CC[C@]4(C)[C@H]3C[C@H](O)[C@]12C)OOC1(CCCCC1)OO5
IC50 [1]: 166 nM | IC90 [1]: 340 nM | GI50 [11]: 170 nM | TGI [11]: 320 nM | CC50 [11, 33]: 590 nM | GI50 [12]: 100 nM | TGI [12]: 240 nM | CC50 [12, 33]: 560 nM | IC50 [5]: 109 nM | IC90 [5]: 298 nM | GI50 [13]: 160 nM | TGI [13]: 340 nM | CC50 [13, 33]: 720 nM | GI50 [14]: 20 nM | TGI [14]: 30 nM | CC50 [14, 33]: 60 nM | GI50 [15]: 180 nM | TGI [15]: 410 nM | CC50 [15, 33]: 960 nM | GI50 [16]: 250 nM | TGI [16]: 590 nM | CC50 [16, 33]: 4270 nM | GI50 [17]: 150 nM | TGI [17]: 310 nM | CC50 [17, 33]: 620 nM | GI50 [18]: 290 nM | TGI [18]: 990 nM | CC50 [18, 33]: 3410 nM | GI50 [19]: 170 nM | TGI [19]: 330 nM | CC50 [19, 33]: 660 nM | GI50 [20]: 140 nM | TGI [20]: 320 nM | CC50 [20, 33]: 730 nM | GI50 [21]: 200 nM | TGI [21]: 390 nM | CC50 [21, 33]: 730 nM | IC50 [7]: 130 nM | IC90 [7]: 623 nM | GI50 [22]: 230 nM | TGI [22]: 540 nM | CC50 [22, 33]: 2010 nM | GI50 [23]: 210 nM | TGI [23]: 460 nM | CC50 [23, 33]: 980 nM | GI50 [24]: 140 nM | TGI [24]: 310 nM | CC50 [24, 33]: 650 nM | GI50 [25]: 240 nM | TGI [25]: 620 nM | CC50 [25, 33]: 2680 nM | GI50 [26]: < 10 nM | TGI [26]: 10 nM | CC50 [26, 33]: 60 nM | GI50 [27]: 330 nM | TGI [27]: 930 nM | CC50 [27, 33]: 5300 nM | GI50 [28]: 40 nM | TGI [28]: 170 nM | CC50 [28, 33]: 610 nM | GI50 [29]: 110 nM | TGI [29]: 230 nM | CC50 [29, 33]: 480 nM

CN(C)CCNC(=O)C1CCC2(CC1)OOC1(CCCCC1)OO2
IC50 [1]: 7.24 nM | IC90 [1]: 12.8 nM | Survival [30]: 7.2 days | IC50 [5]: 9.72 nM | IC90 [5]: 17.9 nM | Survival [31]: 7.6 days | IC50 [7]: 11.2 nM | IC90 [7]: 15.1 nM | Survival [32]: 17.4 days | half-life [8]: > 60 min | half-life [10]: > 60 min
